Source: US4429044A, “Preparation of an alkaline protease from flavobacterium arborescens” (Miles Laboratories, Inc., priority 1982, dated 1984)

Test system: F. arborescens protease
Format: biochemical, Flavobacterium arborescens

## O=C(O)CN(CCN(CC(=O)O)CC(=O)O)CC(=O)O [EDTA, ethylenediamine tetraacetate]
  Activity of protease in presence of inhibitor: 4.1 units

## CCN1C(=O)C=CC1=O [NEM, N--ethyl maleimide]
  Activity of protease in presence of inhibitor: 2.0 units

## O=S(=O)(F)Cc1ccccc1 [PMSF, phenylmethyl sulfonyl fluoride]
  Activity of protease in presence of inhibitor: 1.9 units
  Effect of inhibitor on protease activity (in words): no effect

B1: SSI: streptomyces subtilisin inhibitor (protein, UniProt P01006 32-144, looked up)
Subtilisin inhibitor: DAPSALYAPSALVLTVGKGVSATTAAPERAVTLTCAPGPSGTHPAAGSACADLAAVGGDLNALTRGEDVMCPMVYDPVLLTVDGVWQGKRVSYERVFSNECEMNAHGSSVFAF
  Activity of protease in presence of inhibitor: 1.6 units
  Effect of inhibitor on protease activity (in words): strongly inhibited
